# Assay results from publication PMC12586182 (Frontiers in Oncology, 2025).
# Legend:
# Assay in all cases: Kinase panel profiling at 1 µmol/L (mobility shift assay, Carna)
# Format in all cases: biochemical
# Conditions in all cases: 1 µmol/L of BTK inhibitor
# [1] = target: T1, MRCKβ (Homo sapiens, UniProt Q9Y5S2)
# T1 construct: purchased Carna Biosciences
# [2] = target: T2, TRKA (Homo sapiens, UniProt P04629)
# T2 construct: purchased Carna Biosciences
# [3] = target: T3, MST4 (Homo sapiens, UniProt Q9P289)
# T3 construct: purchased Carna Biosciences
# [4] = target: T4, WNK1 (Homo sapiens, UniProt Q9H4A3)
# T4 construct: purchased Carna Biosciences
# [5] = target: T5, NDR1 (Homo sapiens, UniProt Q15208)
# T5 construct: purchased Carna Biosciences
# [6] = target: T6, EPHA3 (Homo sapiens, UniProt P29320)
# T6 construct: purchased Carna Biosciences
# T6 sequence (P29320 21-983): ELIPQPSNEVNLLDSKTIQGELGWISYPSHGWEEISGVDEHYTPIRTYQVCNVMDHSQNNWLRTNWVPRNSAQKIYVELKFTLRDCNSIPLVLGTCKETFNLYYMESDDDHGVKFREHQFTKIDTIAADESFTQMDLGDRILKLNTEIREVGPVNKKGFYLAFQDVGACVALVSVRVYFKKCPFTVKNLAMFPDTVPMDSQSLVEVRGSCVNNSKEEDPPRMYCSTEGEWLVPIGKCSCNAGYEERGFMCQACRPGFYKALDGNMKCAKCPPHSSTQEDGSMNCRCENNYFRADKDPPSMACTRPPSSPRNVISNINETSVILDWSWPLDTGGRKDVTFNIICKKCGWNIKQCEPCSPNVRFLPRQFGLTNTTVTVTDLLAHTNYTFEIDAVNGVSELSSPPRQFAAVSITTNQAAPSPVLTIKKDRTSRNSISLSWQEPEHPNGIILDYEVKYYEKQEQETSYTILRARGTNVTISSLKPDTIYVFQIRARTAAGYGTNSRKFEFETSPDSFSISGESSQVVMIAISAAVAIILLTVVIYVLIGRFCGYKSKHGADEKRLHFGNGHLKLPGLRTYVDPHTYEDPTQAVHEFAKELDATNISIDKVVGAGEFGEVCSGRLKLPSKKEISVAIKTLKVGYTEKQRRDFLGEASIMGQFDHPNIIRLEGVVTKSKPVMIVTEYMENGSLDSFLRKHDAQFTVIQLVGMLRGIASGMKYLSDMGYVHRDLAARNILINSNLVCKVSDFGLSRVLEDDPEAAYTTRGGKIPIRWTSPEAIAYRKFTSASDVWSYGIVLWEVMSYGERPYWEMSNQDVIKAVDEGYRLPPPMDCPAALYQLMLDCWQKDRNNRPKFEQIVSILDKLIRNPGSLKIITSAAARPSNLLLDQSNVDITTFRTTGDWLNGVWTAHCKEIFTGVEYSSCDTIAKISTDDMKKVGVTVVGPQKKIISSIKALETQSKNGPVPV
# [7] = target: T7, PKCη (Homo sapiens, UniProt P24723)
# T7 construct: purchased Carna Biosciences
# [8] = target: T8, PHKG2 (Homo sapiens, UniProt P15735)
# T8 construct: purchased Carna Biosciences
# T8 sequence (P15735 1-406): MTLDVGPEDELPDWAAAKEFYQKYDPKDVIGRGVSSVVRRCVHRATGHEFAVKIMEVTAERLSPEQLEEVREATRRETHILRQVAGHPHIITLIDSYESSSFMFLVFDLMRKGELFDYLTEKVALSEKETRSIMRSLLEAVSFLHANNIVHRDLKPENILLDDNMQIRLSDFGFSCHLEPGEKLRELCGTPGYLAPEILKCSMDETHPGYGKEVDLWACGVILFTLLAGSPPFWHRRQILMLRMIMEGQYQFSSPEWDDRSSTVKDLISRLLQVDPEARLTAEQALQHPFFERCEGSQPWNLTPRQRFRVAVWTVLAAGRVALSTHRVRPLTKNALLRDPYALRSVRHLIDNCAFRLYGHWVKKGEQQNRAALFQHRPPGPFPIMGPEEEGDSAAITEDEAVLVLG
# [9] = target: T9, MRCKα (Homo sapiens, UniProt Q5VT25)
# T9 construct: purchased Carna Biosciences
# [10] = target: T10, PYK2 (Homo sapiens, UniProt Q14289)
# T10 construct: purchased Carna Biosciences
# [11] = target: T11, FRK (Homo sapiens, UniProt P42685)
# T11 construct: purchased Carna Biosciences
# [12] = target: T12, CLK1 (Homo sapiens, UniProt P49759)
# T12 construct: purchased Carna Biosciences
# [13] = target: T13, MST2 (Homo sapiens, UniProt Q13188)
# T13 construct: purchased Carna Biosciences
# T13 sequence (Q13188 1-491): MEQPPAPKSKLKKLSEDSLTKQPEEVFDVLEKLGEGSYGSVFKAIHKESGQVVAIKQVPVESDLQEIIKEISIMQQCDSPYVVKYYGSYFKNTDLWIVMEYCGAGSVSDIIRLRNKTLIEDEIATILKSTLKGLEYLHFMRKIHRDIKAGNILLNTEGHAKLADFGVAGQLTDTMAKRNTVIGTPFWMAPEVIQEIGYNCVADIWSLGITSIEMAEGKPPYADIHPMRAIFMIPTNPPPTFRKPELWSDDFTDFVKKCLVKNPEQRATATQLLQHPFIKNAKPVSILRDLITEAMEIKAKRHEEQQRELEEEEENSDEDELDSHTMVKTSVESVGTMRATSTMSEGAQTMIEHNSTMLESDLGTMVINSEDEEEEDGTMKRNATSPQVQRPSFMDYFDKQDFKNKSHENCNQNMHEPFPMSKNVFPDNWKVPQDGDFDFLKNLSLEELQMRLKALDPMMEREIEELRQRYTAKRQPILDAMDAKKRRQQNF
# [14] = target: T14, TRKC (Homo sapiens, UniProt Q16288)
# T14 construct: purchased Carna Biosciences
# [15] = target: T15, PAK4 (Homo sapiens, UniProt O96013)
# T15 construct: purchased Carna Biosciences
# T15 sequence (O96013 whole entry): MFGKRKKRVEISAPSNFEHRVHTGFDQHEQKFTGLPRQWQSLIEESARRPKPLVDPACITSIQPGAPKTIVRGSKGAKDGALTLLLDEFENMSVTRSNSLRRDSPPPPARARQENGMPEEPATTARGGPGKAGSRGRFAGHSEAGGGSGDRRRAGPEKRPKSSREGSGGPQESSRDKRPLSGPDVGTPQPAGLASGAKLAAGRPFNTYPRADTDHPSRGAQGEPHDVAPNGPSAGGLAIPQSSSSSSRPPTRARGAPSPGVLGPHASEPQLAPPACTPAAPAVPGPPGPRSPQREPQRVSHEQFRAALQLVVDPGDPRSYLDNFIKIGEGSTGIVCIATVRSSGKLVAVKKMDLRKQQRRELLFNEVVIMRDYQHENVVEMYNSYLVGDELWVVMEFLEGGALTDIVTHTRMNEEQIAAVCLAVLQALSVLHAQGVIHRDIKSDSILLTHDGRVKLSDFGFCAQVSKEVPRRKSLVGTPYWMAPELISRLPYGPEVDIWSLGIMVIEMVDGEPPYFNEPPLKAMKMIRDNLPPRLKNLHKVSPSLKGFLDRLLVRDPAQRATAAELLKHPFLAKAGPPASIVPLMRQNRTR
# T9 sequence (Q5VT25 whole entry): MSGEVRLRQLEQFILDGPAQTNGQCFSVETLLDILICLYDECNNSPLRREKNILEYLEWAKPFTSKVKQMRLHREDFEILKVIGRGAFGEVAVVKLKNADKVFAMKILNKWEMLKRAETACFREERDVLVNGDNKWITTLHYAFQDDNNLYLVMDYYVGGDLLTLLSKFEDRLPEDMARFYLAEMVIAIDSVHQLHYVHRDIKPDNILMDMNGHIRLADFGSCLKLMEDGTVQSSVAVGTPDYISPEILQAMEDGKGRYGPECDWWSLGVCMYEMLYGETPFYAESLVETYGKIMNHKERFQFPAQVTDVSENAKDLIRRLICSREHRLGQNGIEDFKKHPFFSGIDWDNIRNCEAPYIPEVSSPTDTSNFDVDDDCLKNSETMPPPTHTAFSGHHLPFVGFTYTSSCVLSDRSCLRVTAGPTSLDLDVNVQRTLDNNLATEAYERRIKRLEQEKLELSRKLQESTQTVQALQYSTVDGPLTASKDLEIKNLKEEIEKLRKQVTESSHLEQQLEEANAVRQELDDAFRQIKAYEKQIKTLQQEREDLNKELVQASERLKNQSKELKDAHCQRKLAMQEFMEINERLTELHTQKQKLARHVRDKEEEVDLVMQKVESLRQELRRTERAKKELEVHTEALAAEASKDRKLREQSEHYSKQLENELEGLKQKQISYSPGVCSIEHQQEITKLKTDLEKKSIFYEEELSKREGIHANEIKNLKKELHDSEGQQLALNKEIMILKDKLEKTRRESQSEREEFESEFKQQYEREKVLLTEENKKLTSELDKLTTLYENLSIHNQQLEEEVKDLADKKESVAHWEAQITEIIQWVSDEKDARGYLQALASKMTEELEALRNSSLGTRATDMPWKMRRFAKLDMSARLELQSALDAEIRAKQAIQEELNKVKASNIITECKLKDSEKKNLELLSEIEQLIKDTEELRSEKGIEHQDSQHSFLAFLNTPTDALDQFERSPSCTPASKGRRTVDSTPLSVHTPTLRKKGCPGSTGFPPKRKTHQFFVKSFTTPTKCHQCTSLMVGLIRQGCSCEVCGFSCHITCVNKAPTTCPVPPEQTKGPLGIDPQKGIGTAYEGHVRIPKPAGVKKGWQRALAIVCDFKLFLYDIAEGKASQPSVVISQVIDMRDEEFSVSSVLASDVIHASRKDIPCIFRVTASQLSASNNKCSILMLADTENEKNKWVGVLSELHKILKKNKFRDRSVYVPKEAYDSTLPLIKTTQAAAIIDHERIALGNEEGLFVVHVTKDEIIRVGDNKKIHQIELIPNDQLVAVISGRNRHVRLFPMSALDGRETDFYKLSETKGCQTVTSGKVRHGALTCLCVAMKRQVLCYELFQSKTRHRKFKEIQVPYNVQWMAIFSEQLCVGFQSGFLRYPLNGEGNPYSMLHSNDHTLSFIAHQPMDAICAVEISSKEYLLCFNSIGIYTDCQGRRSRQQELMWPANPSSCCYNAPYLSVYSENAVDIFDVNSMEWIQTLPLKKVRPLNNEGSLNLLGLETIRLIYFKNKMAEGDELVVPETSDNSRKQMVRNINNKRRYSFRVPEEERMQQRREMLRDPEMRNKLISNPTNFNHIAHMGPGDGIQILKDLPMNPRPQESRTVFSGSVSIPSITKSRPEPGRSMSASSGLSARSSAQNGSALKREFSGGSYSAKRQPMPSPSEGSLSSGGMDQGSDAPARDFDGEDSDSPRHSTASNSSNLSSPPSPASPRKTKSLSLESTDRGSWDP
# T14 sequence (Q16288 32-839): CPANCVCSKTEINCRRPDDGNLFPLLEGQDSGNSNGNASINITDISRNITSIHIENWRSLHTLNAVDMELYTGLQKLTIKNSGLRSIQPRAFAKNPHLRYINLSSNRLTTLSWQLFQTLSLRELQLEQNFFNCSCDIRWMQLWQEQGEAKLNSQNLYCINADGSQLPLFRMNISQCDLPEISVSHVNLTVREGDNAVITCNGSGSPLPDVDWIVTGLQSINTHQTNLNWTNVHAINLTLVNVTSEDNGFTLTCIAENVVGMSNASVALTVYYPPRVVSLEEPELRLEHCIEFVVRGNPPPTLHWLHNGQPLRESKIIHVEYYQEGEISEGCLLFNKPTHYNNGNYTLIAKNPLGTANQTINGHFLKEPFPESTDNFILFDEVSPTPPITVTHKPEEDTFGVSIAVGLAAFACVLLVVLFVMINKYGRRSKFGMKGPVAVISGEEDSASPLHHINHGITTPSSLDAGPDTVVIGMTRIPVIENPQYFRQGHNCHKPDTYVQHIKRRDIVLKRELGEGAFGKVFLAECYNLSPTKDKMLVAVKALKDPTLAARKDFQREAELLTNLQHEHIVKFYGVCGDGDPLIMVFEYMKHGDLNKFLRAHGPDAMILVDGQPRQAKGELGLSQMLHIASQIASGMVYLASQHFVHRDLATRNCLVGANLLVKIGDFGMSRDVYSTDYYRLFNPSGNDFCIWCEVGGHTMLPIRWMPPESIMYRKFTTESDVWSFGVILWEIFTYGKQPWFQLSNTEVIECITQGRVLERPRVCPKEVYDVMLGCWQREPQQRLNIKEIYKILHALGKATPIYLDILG
# T10 sequence (Q14289 whole entry): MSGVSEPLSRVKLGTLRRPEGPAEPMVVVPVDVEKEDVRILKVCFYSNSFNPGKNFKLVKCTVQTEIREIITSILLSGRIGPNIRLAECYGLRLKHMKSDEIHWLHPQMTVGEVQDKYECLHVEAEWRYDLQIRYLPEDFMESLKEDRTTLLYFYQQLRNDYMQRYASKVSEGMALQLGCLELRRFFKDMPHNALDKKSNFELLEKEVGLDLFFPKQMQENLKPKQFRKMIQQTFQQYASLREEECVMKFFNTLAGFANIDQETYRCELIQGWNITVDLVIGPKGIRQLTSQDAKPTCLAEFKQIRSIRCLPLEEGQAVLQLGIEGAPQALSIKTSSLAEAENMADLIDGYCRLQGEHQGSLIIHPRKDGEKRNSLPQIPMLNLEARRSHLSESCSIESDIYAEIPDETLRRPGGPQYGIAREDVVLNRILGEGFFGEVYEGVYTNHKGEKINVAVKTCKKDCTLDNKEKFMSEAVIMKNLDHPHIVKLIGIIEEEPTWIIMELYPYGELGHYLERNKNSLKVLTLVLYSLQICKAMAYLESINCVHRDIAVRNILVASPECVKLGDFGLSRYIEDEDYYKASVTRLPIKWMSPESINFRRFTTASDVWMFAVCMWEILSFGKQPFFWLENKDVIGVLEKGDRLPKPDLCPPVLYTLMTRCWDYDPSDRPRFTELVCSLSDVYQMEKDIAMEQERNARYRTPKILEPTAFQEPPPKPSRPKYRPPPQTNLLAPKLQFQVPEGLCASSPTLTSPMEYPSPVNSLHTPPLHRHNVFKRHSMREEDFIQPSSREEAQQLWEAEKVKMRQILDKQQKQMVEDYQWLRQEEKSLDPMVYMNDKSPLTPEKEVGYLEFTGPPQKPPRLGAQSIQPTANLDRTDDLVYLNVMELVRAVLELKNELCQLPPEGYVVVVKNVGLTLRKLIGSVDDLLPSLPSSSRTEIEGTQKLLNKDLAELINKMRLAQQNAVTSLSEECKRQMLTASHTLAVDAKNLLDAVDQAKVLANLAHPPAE
# T12 sequence (P49759 whole entry): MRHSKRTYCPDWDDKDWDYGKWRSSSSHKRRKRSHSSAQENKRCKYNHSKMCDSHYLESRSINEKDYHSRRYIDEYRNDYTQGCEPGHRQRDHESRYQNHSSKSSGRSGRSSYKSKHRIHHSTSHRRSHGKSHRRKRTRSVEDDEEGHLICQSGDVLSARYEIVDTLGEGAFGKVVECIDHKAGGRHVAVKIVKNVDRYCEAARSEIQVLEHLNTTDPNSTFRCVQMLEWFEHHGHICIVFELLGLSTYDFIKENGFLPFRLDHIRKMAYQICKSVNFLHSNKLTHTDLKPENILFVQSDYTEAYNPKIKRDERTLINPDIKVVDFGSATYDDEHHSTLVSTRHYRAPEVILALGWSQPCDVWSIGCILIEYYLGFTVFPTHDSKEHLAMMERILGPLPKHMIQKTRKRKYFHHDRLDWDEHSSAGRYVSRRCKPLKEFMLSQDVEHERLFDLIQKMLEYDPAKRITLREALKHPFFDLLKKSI
# T5 sequence (Q15208 whole entry): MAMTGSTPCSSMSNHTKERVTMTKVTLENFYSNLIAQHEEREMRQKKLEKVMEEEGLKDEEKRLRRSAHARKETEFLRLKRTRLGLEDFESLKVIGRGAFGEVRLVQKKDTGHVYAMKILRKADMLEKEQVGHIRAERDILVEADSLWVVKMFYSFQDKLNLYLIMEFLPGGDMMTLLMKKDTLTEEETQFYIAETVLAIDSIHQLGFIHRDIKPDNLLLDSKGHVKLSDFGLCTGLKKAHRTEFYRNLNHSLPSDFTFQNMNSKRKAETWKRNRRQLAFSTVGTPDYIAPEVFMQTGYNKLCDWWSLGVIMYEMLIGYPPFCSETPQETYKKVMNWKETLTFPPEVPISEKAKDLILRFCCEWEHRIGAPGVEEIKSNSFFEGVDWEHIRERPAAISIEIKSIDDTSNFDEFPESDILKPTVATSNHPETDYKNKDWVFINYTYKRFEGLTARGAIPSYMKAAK
Compound,Percentage inhibition of kinase enzyme activity [1],Percentage inhibition of kinase enzyme activity [2],Percentage inhibition of kinase enzyme activity [3],Percentage inhibition of kinase enzyme activity [4],Percentage inhibition of kinase enzyme activity [5],Percentage inhibition of kinase enzyme activity [6],Percentage inhibition of kinase enzyme activity [7],Percentage inhibition of kinase enzyme activity [8],Percentage inhibition of kinase enzyme activity [9],Percentage inhibition of kinase enzyme activity [10],Percentage inhibition of kinase enzyme activity [11],Percentage inhibition of kinase enzyme activity [12],Percentage inhibition of kinase enzyme activity [13],Percentage inhibition of kinase enzyme activity [14],Percentage inhibition of kinase enzyme activity [15]
O=C(c1ccc(Oc2ccccc2)cc1Cl)c1c[nH]c2ncnc(N[C@@H]3CC[C@@H](CO)OC3)c12 [nemtabrutinib],-5.25%,99.52%,57.51%,8.78%,3.34%,50.57%,5.25%,5.39%,9.50%,100.08%,98.79%,0.63%,86.96%,99.56%,53.09%
CC#CC(=O)N1CCC[C@H]1c1nc(-c2ccc(C(=O)Nc3ccccn3)cc2)c2c(N)nccn12 [acalabrutinib],-15.91%,12.80%,-6.42%,5.36%,-6.32%,-2.07%,-3.18%,0.00605%,-7.47%,-3.55%,47.48%,-8.11%,-3.46%,11.12%,-1.65%
COc1ccc(F)cc1C(=O)NCc1ccc(-c2nn([C@@H](C)C(F)(F)F)c(N)c2C(N)=O)cc1 [pirtobrutinib],0.61%,4.28%,-7.97%,-5.02%,1.20%,-5.46%,3.32%,7.27%,0.63%,7.26%,13.63%,-2.61%,6.74%,5.23%,4.35%
C=CC(=O)N1CCC([C@@H]2CCNc3c(C(N)=O)c(-c4ccc(Oc5ccccc5)cc4)nn32)CC1 [zanubrutinib],,,,,,-0.20%,,,,16.35%,31.32%,,,,
C=CC(=O)N1CCC[C@@H](n2nc(-c3ccc(Oc4ccccc4)cc3)c3c(N)ncnc32)C1 [ibrutinib],-7.55%,59.18%,1.46%,2.30%,2.65%,3.80%,3.27%,0.82%,-0.62%,3.37%,99.53%,,16.65%,23.90%,10.65%
